Assay results: US6989375B2, “Enhanced expression of transgenes” (priority 1996, dated 2006)

Legend:
[1] = tested on: H1299 cells; assay: β-gal expression after gene delivery with Ad/PLL/DNA complex or lipofectamine in CDDP-treated cells; assay type: cell-based, human; details: 48 hrs after CDDP removal
Description: Gene Transfer Vectors: The recombinant adenovirus carrying the Escherichia coli β-galactosidase gene under the control of the human cytomegalovirus enhancer/promotor (Ad/CMV/β-gal) or the replication defective adenovirus were propagated on 293 cells and purified and stored using techniques previously reported (Nguyen et al., 1996). Viral titer was determined by UV spectrophotometric analysis (Nguyen et al., 1996a; 1996b). To determine if the CDDP-induced enhancement of gene expression would be dependent on the method of gene delivery, two other gene delivery systems were used: the Ad/PLL/DNA complex (Nguyen et al., 1996a; 1996b) and cationic liposomes (Lipofectamine, Gibco BRL). CDDP (0.062 μg/ml)-treated H1299 cells were incubated with either gene delivery system carrying a plasmid that contained the β-gal gene under the control of the CMV enhancer/promotor (CMV/β-gal) 48 hours after drug removal. Plasmid DNA was isolated by the alkaline lysis technique and purified by using Qiagen DNA purification kits (Qiagen, Chatsworth, Calif.). Plasmid containing liposome preparations and gene transfer were performed according to the manufacturer's protocol. The conjugated Ad/PLL/DNA complex was constructed and used to deliver the β-gal gene to H1299 and H460 cells as described elsewhere (Nguyen et al., 1996a; 1996b).

[2] = tested on: primary normal human bronchial epithelial (NHBE) cells; assay: β-gal expression by X-gal staining after Ad/CMV/β-gal infection of CDDP-treated normal cells; assay type: cell-based; details: CDDP 0.062 μg/ml; 90% confluent
Description: The human non-small cell lung carcinoma cell lines H1299 and H460 were grown in RPMI-1640 medium supplemented with 5% heat-inactivated fetal calf serum (FCS), 10 mM glutamine, 100 units/ml of penicillin, 100 μg/ml of streptomycin and 0.25 μg/ml of amphotericin B. Human non-small cell lung carcinoma cell lines H358, H226br, and the cervical cancer cell line SiHa were maintained in complete RPMI-1640 medium supplemented with 10% FCS. The cell line A549 (human, non-small cell lung carcinoma) was grown in Ham's F12 nutrient mixture solution (Gibco BRL, Gaithersburg, Md.) similarly supplemented with antibiotics, glutamine and 10% FCS.
Gene Delivery Protocol: In vitro gene delivery was performed by incubating cells in six-well plates (Falcon Plastics, Lincoln Park, N.J.) for two hours with Adv/CMV/β-gal in appropriate medium supplemented with 2% FCS. The multiplicity of infection (MOI: number of viral particles per target cell) was based on cell counts of untreated wells. Fresh, complete medium with the appropriate concentration of FCS was then added to the wells at the end of the infection period and cells were then incubated for 20 hours at 37° C., 5% CO2. […] The transduction efficiency by Adv/CMV/β-gal was determined by the percentage of positive stained cells (blue) for β-galactosidase activity (1000 cells counted per well).

[3] = tested on: subcutaneous H1299 tumors; assay: In vivo CDDP-induced enhancement of β-gal gene expression in subcutaneous tumors; parameters: species or system nude mice
Description: Subcutaneous (SC) tumor nodules were created by injecting 1×10^7 H1299 cells suspended in 100 μl of PBS into the dorsal flank SC tissue of nude mice (nu/nu, Charles River, Wilmington, Mass.) that had received 350 Rads of total body irradiation. Tumors, approximately 250 mm^3 in size, consistently formed within 3 to 4 weeks of tumor cell implantation. Intratumoral injections of Ad/CMV/β-gal (5×10^8 viral particles) were done at 0, 2, 4, and 6 days following an intraperitoneal injection of CDDP (5 μg/g body weight in 100 μl of PBS) or PBS only (n=4 per groups). The tumors were excised 48 hours after adenovirus injection, washed in cold PBS, embedded in tissue freezing medium (Fisher Scientific, Houston, Tex.) and snap-frozen by immersion in 2-methylbutane which was chilled over liquid nitrogen. Serial frozen sections (8μ, thick) of the tumor mass obtained at 2-mm intervals were fixed and stained with X-gal as previously described (Ponder et al., 1991) and then counterstained with nuclear fast red (PolyScientific, Bay Shore, N.Y.). Quantitative assessment of β-gal gene expression (blue cells) was determined by digital image analysis (Samba 4000, Immuno Software, Version 3.0; Image Products International, Inc., Chantilly, Va.) for each tumor section. In vivo β-gal gene transduction of tumor masses was calculated as the mean of the percentage of blue cells per surface area of representative sections. Tumor-bearing animals receiving intraperitoneal injection of PBS and subsequent intratumoral injection of Ad/CMV/β-gal at identical time points, served as controls. The magnitude of enhancement was calculated by dividing values from CDDP and Ad/CMV/β-gal treated tumors by values from Ad/CMV/β-gal control treated tumors.

[4] = tested on: H1299 cells; assay: Cell proliferation assay (daily cell counts); assay type: cell-based, human; details: for Increased inhibition of tumor proliferation compared to cells transfected with Adv/CMV/p53 only: CDDP 48 hrs prior to Adv/CMV/p53 (MOI 5)
Description: H1299 cells were exposed to CDDP (0.062 μg/ml of medium) for 24 hrs. Cells were then washed twice with PBS, trypsinized and seeded in 6-well plates (10^5 cells/well). Forty eight hours later, cells were infected with Ad/CMV/p53 at the multiplicity of infection (MOI) of 5. Daily cell counts were performed for 5 days following transfection to study the tumor suppression effect of the combination of sequential CDDP and adenovirus-mediated p53 gene transfer. Controls consisted of untreated cells or cells exposed to CDDP only, cells transfected with Ad/CMV/p53 only and cells transfected with d1312 (similar MOI) with or without prior CDDP treatment.

[5] = tested on: p53 protein in H1299 cells; assay: Western blot analysis of p53 protein expression with densitometry; assay type: cell-based, human; details: CDDP = prior CDDP exposure, Adv/CMV/p53 = without prior CDDP
Description: H1299 cells were infected with Ad/CMV/p53 (MOI=1) 48 hrs after CDDP exposure. Cells were then harvested at 6, 12, 24, 36 and 48 hrs after transfection for Western blot analysis of p53 protein expression, as described elsewhere (Diller et al., 1990). Unexposed cells similarly transfected with Ad/CMV/p53 were used as controls. The human NSCLC cell line H322 which overexpresses mutant p53 protein was used as a positive control. Relative quantities of exogenous p53 protein were determined by densitometer (Molecular Dynamics, Sunnyvale, Calif.).

N.N.[Cl][Pt][Cl] [CDDP, cis-dichlorodimminocisplatin]
β-gal gene expressing cells compared with adenovirus-mediated gene transfer ([1]; cationic phospholipid lipofectamine carrying CMV/β-gal plasmid): same magnitude
β-gal gene expressing cells compared with adenovirus-mediated gene transfer ([1]; conjugated Ad/PLL/DNA complex carrying CMV/β-gal plasmid): same magnitude
Enhancement of gene expression in stationary normal cells [2]: failed to enhance gene expression
Percentage of positively stained cells in tumors ([3]; Ad/CMV/β-gal injected 2 days after CDDP 5 μg/g ip (CDDP) or PBS (Ad/CMV/β-gal control)): 46.0±4.3%
Percentage of positively stained cells in tumors ([3]; Ad/CMV/β-gal injected 4 days after CDDP 5 μg/g ip (CDDP) or PBS (Ad/CMV/β-gal control)): 70.2±11%
Percentage of positively stained cells in tumors ([3]; Ad/CMV/β-gal injected 6 days after CDDP 5 μg/g ip (CDDP) or PBS (Ad/CMV/β-gal control)): 23.4±5%
Change in β-gal gene expression ([3]; CDDP 5 μg/g ip and Ad/CMV/β-gal concurrently administered (day 0)): no change
Fold increase of positively stained cells over respective control ([3]; gene transfer 2 days after CDDP administration): 1.6 fold
Fold increase of positively stained cells over respective control ([3]; gene transfer 4 days after CDDP administration): 2.8 fold
Effect on cell growth in vitro ([4]; CDDP 0.0625 μg/ml for 24 hrs, alone): no effect on cell growth
Increased inhibition of tumor proliferation compared to cells transfected with Adv/CMV/p53 only ([4]; day 3 after p53 transfer): 61%
Increased inhibition of tumor proliferation compared to cells transfected with Adv/CMV/p53 only ([4]; day 5 after p53 transfer): 55%
Relative level of p53 protein (normalized for β-actin) ([5]; 12 hrs after Adv/CMV/p53 transfection (MOI=1)): 0.73
Relative level of p53 protein (normalized for β-actin) ([5]; 24 hrs after Adv/CMV/p53 transfection (MOI=1)): 1.39
Relative level of p53 protein (normalized for β-actin) ([5]; 36 hrs after Adv/CMV/p53 transfection (MOI=1)): 1.49
Relative level of p53 protein (normalized for β-actin) ([5]; 48 hrs after Adv/CMV/p53 transfection (MOI=1)): 1.20
